Entries after “also recorded” stand apart in the source; their conditions may differ.

From paper PMC8308021, “Indole- and Pyrazole-Glycyrrhetinic Acid Derivatives as PTP1B Inhibitors: Synthesis, In Vitro and In Silico Studies” (Molecules, 2021) come the findings set out here.

Series [1] concerns the target T1, PTP1B (Homo sapiens, UniProt P18031).
T1 sequence (P18031 1-435): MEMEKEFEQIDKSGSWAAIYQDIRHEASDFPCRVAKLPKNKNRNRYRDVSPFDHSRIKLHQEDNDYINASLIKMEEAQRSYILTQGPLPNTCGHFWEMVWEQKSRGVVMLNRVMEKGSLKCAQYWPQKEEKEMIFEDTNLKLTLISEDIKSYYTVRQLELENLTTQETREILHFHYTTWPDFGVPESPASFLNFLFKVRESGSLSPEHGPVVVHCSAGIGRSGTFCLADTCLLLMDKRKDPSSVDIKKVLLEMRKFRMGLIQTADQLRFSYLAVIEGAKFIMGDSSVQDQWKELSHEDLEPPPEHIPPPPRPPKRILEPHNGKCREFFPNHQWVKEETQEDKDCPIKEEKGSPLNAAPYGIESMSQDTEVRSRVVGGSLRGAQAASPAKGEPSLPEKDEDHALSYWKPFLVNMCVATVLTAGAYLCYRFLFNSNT
The experiment in a line: PTP1B inhibitory assay (pNPP, spectrocolorimetric). The class given is biochemical. Conditions: pNPP substrate; three independent determinations. As to the method: To test the inhibitory activity of the compounds against PTP1B, a spectrocolorimetric method previously described was employed. The compounds and positive control were dissolved in DMSO or buffer solution [50 mM; Tris-HCI Buffer, pH 6.8], DL-dithiothreitol 1.5 mM, all from Sigma–Aldrich, St. Louis, MO, USA. Aliquots of 0–10 μL of testing compounds (triplicated) were incubated for 10 min at 37 °C with 85 μL of enzyme stock solution (3 μM) in buffer solution. After incubation, 5 μL of the substrate p-nitrophenyl phosphate (pNPP, 0.5 mM, Sigma–Aldrich, St. Louis, MO, USA) were added and incubated a further 25 min at 37 °C; then, the absorbance was recorded at 415 nm.

Series [2] concerns the target T1, PTP1B. The experiment in a line: Enzyme kinetics of PTP1B inhibition. The class given is biochemical. Conditions: for Inhibition Type: best fit of competitive vs non-competitive model, Lineweaver-Burk; for Ki: non-linear regression of saturation curves at fixed inhibitor concentrations. The method, then: The kinetic studies were carried out under the same conditions described above. Different saturation curves were constructed at fixed inhibitor concentrations. The different inhibitor concentrations were determined based on the previously determined IC50 for each compound. Subsequently, the data obtained were analyzed through a non-linear regression, using OriginPro version 2018 (64-bit) SR1 (Northamton MA, USA, https://www.originlab.com) (accessed on 2 April 2021), adjusting to the following mathematical models:
And non-competitive: y=Vm×s^nh/(1+i/Ki)×S05^nh+(1+i/Ki)×s^nh where Vm is the maximum velocity, S and i are the concentration of substrate and inhibitor, respectively; Ki is the inhibition constant, and nh is the number of Hill.
Additionally, Lineweaver–Burk graphs were constructed to visualize the type of inhibition graphically.

As a reminder, the IC50 is the concentration at which inhibition is half-maximal. Read a low IC50 as higher potency. On to `CC1(C)[C@@H](OC(=O)CCC(=O)O)CC[C@]2(C)[C@H]3C(=O)C=C4[C@@H]5C[C@@](C)(C(=O)O)CC[C@]5(C)CC[C@@]4(C)[C@]3(C)CC[C@@H]12` [CA, carbenoxolone, reference compound], for which, in series [1], half-maximal inhibition (IC50) was put at 69.7 ± 6.98 µM.
As usually defined, the Ki is a measure of affinity in units of concentration, obtained from inhibition or displacement. High values mean lower affinity, low ones higher affinity. Compound `CC(C)CCC[C@@H](C)[C@H]1CC[C@H]2[C@@H]3C[C@@H](NCCCNCCCCNCCCN)[C@H]4C[C@@H](O)CC[C@]4(C)[C@H]3CC[C@]12C` [CL, claramine] showed an IC50 in series [1] of 13.7 ± 0.11 µM. In series [2], the “Inhibition Type” value is “non-competitive inhibition” and the affinity corresponds to a Ki of 15.4 ± 1.7 µM.
As usually defined, the melting point is the temperature of the solid-liquid transition. Turning to `CC1(C)c2[nH]c3ccccc3c2C[C@@]2(C)C1CC[C@]1(C)C2C(=O)C=C2C3C[C@@](C)(C(=O)O)CC[C@]3(C)CC[C@]21C` (stereo partly drawn) [Compound 4a], the melting point fell in the range of 245 to 248 °C. Besides, in series [1], the IC50 was determined as 6.6 ± 0.13 µM.
The corresponding values for `COc1ccc2[nH]c3c(c2c1)C[C@@]1(C)C(CC[C@]2(C)C1C(=O)C=C1C4C[C@@](C)(C(=O)O)CC[C@]4(C)CC[C@]12C)C3(C)C` (stereo partly drawn) [Compound 4b] are 243 to 244 °C and 4.3 ± 0.26 µM.
Taken in the same sequence, the figures for `Cc1ccc2[nH]c3c(c2c1)C[C@@]1(C)C(CC[C@]2(C)C1C(=O)C=C1C4C[C@@](C)(C(=O)O)CC[C@]4(C)CC[C@]12C)C3(C)C` (stereo partly drawn) [Compound 4c] were 268 to 271 °C and 8.3 ± 0.1 µM.
Taken in the same sequence, the figures for `CC1(C)c2[nH]c3ccc(F)cc3c2C[C@@]2(C)C1CC[C@]1(C)C2C(=O)C=C2C3C[C@@](C)(C(=O)O)CC[C@]3(C)CC[C@]21C` (stereo partly drawn) [Compound 4d] were 245 to 248 °C and 5.2 ± 0.22 µM.
Compound `CC1(C)c2[nH]c3ccc(Cl)cc3c2C[C@@]2(C)C1CC[C@]1(C)C2C(=O)C=C2C3C[C@@](C)(C(=O)O)CC[C@]3(C)CC[C@]21C` (stereo partly drawn) [Compound 4e] came in with a melting point of 256 to 258 °C. The compound also returned an IC50 in series [1] of 10.1 ± 0.21 µM.
Regarding `CC1(C(=O)O)CCC2(C)CCC3(C)C(=CC(=O)C4C5(C)Cc6c([nH]c7ccc(C(F)(F)F)cc67)C(C)(C)C5CCC43C)C2C1` (stereo not drawn) [Compound 4f], in series [1], half-maximal inhibition (IC50) required 2.5 ± 0.03 µM. Moreover, in series [2], the “Inhibition Type” value is listed as “non-competitive inhibition; also recorded: non-competitive inhibitors” and the Ki was 3.9 ± 0.5 µM.
Compound `CC1(C)c2c(cnn2-c2ccccc2)C[C@@]2(C)C1CC[C@]1(C)C2C(=O)C=C2C3C[C@@](C)(C(=O)O)CC[C@]3(C)CC[C@]21C` (stereo partly drawn) [Compound 5a] yielded a melting point of 243 to 245 °C. The IC50 in series [1] turned out to be 5.1 ± 0.56 µM.
Taken in the same sequence, the figures for `COc1ccc(-n2ncc3c2C(C)(C)C2CC[C@]4(C)C(C(=O)C=C5C6C[C@@](C)(C(=O)O)CC[C@]6(C)CC[C@]54C)[C@@]2(C)C3)cc1` (stereo partly drawn) [Compound 5b] were 208 to 211 °C and 4.8 ± 0.2 µM.
For the compound `Cc1ccc(-n2ncc3c2C(C)(C)C2CC[C@]4(C)C(C(=O)C=C5C6C[C@@](C)(C(=O)O)CC[C@]6(C)CC[C@]54C)[C@@]2(C)C3)cc1` (stereo partly drawn) [Compound 5c], it took 4.8 ± 0.3 µM to reach half-maximal inhibition in series [1] (IC50).
`CC1(C)c2c(cnn2-c2ccc(F)cc2)C[C@@]2(C)C1CC[C@]1(C)C2C(=O)C=C2C3C[C@@](C)(C(=O)O)CC[C@]3(C)CC[C@]21C` (stereo partly drawn) [Compound 5d] gave a melting point of 260 to 264 °C. Besides, in series [1], inhibition was half-maximal at 9.6 ± 0.2 µM (IC50).
Take `CC1(C)c2c(cnn2-c2ccc(Cl)cc2)C[C@@]2(C)C1CC[C@]1(C)C2C(=O)C=C2C3C[C@@](C)(C(=O)O)CC[C@]3(C)CC[C@]21C` (stereo partly drawn) [Compound 5e]: the melting point fell in the range of 263 to 266 °C. The same compound showed a half-maximal inhibitory concentration (IC50) in series [1] of 7.5 ± 0.22 µM.
On to `CC1(C(=O)O)CCC2(C)CCC3(C)C(=CC(=O)C4C5(C)Cc6cnn(-c7ccc(C(F)(F)F)cc7)c6C(C)(C)C5CCC43C)C2C1` (stereo not drawn) [Compound 5f], for which the melting point was in the range of 270 to 271 °C. The compound also displayed an IC50 in series [1] of 4.4 ± 0.07 µM. In series [2], the “Inhibition Type” value is recorded as “non-competitive inhibition; also recorded: non-competitive inhibitors” and affinity was put at a Ki of 4.6 ± 0.6 µM.
As to `Cc1ccc(C(=O)Nc2ccc(S(=O)(=O)O)c3cc(S(=O)(=O)O)cc(S(=O)(=O)O)c23)cc1NC(=O)c1cccc(NC(=O)Nc2cccc(C(=O)Nc3cc(C(=O)Nc4ccc(S(=O)(=O)O)c5cc(S(=O)(=O)O)cc(S(=O)(=O)O)c45)ccc3C)c2)c1` [SU, suramin], the “Inhibition Type” value in series [2] is “competitive inhibition; also recorded: competitive inhibitor”.
Take `C[C@H]1[C@H](C)CC[C@]2(C(=O)O)CC[C@]3(C)C(=CC[C@@H]4[C@@]5(C)CC[C@H](O)C(C)(C)[C@@H]5CC[C@]43C)[C@H]12` [UA, ursolic acid]: the “Inhibition Type” value in series [2] was “non-competitive inhibition”; in series [2] (listed as ursolic acid) it was “non-competitive inhibitor”.
